Source: article PMC11202142, “Succinimide Derivatives as Acetylcholinesterase Inhibitors—In Silico and In Vitro Studies” (Current Issues in Molecular Biology, 2024)

How the values were obtained:
[1] = biological target: acetylcholinesterase (AChE) (Homo sapiens, UniProt P22303); assay: Ellman spectrophotometric assay, Lineweaver-Burk kinetics; type: biochemical
[2] = substrate: CC(=O)SCC[N+](C)(C)C; assay: Ellman assay, Km from Lineweaver-Burk plot without inhibitor; type: biochemical, Homo sapiens

Molecule	IC50 [1] [µM]	Km [2] [µM]	Vmax [2] [µM/min]
CCC12C(=O)C(CC)(C(c3ccccc3)=C1c1ccccc1)C1C(=O)NC(=O)C12 (stereo not shown) [I, diethyl (I) succinimide derivative]	31 ± 3	–	–
CC12C(=O)C(C)(C(c3ccccc3)=C1c1ccccc1)C1C(=O)NC(=O)C12 (stereo not shown) [II, dimethyl (II) succinimide derivative]	29 ± 2	–	–
acetylcholinesterase (AChE) (Homo sapiens) (protein) EGREDAELLVTVRGGRLRGIRLKTPGGPVSAFLGIPFAEPPMGPRRFLPPEPKQPWSGVVDATTFQSVCYQYVDTLYPGFEGTEMWNPNRELSEDCLYLNVWTPYPRPTSPTPVLVWIYGGGFYSGASSLDVYDGRFLVQAERTVLVSMNYRVGAFGFLALPGSREAPGNVGLLDQRLALQWVQENVAAFGGDPTSVTLFGESAGAASVGMHLLSPPSRGLFHRAVLQSGAPNGPWATVGMGEARRRATQLAHLVGCPPGGTGGNDTELVACLRTRPAQVLVNHEWHVLPQESVFRFSFVPVVDGDFLSDTPEALINAGDFHGLQVLVGVVKDEGSYFLVYGAPGFSKDNESLISRAEFLAGVRVGVPQVSDLAAEAVVLHYTDWLHPEDPARLREALSDVVGDHNVVCPVAQLAGRLAAQGARVYAYVFEHRASTLSWPLWMGVPHGYEIEFIFGIPLDPSRNYTAEEKIFAQRLMRYWANFARTGDPNEPRDPKAPQWPPYTAGAQQYVSLDLRPLEVRRGLRAQACAFWNRFLPKLLSATDTLDEAERQWKAEFHRWSSYMVHWKNQFDHYSKQDRCSDL	–	960	630
